Experimental data published in ChEMBL document CHEMBL4043265, “Discovery of imidazo[1,2-a]-, [1,2,4]triazolo[4,3-a]-, and [1,2,4]triazolo[1,5-a]pyridine-8-carboxamide negative allosteric modulators of metabotropic glutamate receptor subtype 5” (Bioorg Med Chem Lett, 2017).
Activity calls are given as the source filed them. The calls are words filed in the database; no cut-off is given here.

Tests used:
[1] = target: Metabotropic glutamate receptor 5 (Rattus norvegicus, UniProt P31424); assay: Negative allosteric modulation of rat mGlu5 receptor expressed in HEK293 cells assessed as inhibition of glutamate induced-calcium mobilization preincubated for 2.3 mins followed by glutamate addition measured after 1.7 mins by Fluo-4 AM dye based fluorescence assay; type: functional, cell-based
Chain of Metabotropic glutamate receptor 5 (P31424 whole entry): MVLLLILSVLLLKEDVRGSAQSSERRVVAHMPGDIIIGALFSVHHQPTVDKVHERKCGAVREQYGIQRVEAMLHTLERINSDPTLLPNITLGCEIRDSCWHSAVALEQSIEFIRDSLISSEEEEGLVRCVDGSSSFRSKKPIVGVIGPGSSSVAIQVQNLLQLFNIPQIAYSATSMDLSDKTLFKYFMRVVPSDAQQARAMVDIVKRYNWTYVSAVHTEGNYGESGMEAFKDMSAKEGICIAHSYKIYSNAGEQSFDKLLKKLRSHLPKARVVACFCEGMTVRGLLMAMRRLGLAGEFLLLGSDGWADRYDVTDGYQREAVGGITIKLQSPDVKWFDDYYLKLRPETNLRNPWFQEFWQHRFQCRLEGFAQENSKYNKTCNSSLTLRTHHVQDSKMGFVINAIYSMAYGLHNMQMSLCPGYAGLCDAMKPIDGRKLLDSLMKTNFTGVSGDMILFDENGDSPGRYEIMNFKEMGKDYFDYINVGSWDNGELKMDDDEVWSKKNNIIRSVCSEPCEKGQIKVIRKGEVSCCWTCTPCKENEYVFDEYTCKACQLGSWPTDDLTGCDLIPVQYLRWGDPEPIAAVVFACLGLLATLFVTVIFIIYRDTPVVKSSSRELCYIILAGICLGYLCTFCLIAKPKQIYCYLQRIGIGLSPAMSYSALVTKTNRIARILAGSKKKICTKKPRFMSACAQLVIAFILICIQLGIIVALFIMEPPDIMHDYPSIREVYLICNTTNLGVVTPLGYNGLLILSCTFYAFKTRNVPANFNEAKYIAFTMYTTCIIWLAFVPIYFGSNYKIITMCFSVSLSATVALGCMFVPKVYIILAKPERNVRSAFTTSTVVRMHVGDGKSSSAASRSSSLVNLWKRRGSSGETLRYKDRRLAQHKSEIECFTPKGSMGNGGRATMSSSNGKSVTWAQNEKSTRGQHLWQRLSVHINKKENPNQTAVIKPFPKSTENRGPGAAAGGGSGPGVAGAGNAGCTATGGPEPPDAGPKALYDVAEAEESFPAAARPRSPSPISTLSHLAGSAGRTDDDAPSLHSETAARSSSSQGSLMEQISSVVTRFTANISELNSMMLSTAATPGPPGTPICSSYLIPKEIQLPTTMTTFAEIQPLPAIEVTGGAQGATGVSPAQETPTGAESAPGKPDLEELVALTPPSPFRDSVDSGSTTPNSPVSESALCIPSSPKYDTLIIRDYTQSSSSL

Plasma [2] = conditions: rat, 4 h, 5 µM
Cytochrome P450 2C9 = Cytochrome P450 2C9 (Homo sapiens, UniProt P11712)
Chain of Cytochrome P450 2C9 (P11712 whole entry): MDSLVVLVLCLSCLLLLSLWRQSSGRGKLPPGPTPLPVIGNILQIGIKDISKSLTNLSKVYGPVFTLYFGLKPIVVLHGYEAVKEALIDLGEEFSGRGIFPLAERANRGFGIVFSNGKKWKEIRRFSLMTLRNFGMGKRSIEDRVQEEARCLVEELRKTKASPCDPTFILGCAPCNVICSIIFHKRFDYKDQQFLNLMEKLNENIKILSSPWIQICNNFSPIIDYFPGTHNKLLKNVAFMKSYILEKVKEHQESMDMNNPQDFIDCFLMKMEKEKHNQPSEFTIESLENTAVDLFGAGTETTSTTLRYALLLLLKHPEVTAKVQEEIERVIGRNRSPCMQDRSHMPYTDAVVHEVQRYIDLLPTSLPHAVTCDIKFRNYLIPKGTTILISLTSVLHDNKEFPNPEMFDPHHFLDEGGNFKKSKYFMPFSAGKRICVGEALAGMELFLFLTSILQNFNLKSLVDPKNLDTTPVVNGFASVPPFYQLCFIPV

[3] = target: Metabotropic glutamate receptor 5 (Rattus norvegicus) (UniProt P31424); assay: Negative allosteric modulation of rat mGlu5 receptor expressed in HEK293 cells assessed as inhibition of glutamate induced-calcium mobilization at 30 uM preincubated for 2.3 mins followed by glutamate addition measured after 1.7 mins by Fluo-4 AM dye based fluorescence assay relative to glutamate; type: functional, cell-based
Chain of Metabotropic glutamate receptor 5 (Rattus norvegicus) (P31424 21-1203 limits assumed): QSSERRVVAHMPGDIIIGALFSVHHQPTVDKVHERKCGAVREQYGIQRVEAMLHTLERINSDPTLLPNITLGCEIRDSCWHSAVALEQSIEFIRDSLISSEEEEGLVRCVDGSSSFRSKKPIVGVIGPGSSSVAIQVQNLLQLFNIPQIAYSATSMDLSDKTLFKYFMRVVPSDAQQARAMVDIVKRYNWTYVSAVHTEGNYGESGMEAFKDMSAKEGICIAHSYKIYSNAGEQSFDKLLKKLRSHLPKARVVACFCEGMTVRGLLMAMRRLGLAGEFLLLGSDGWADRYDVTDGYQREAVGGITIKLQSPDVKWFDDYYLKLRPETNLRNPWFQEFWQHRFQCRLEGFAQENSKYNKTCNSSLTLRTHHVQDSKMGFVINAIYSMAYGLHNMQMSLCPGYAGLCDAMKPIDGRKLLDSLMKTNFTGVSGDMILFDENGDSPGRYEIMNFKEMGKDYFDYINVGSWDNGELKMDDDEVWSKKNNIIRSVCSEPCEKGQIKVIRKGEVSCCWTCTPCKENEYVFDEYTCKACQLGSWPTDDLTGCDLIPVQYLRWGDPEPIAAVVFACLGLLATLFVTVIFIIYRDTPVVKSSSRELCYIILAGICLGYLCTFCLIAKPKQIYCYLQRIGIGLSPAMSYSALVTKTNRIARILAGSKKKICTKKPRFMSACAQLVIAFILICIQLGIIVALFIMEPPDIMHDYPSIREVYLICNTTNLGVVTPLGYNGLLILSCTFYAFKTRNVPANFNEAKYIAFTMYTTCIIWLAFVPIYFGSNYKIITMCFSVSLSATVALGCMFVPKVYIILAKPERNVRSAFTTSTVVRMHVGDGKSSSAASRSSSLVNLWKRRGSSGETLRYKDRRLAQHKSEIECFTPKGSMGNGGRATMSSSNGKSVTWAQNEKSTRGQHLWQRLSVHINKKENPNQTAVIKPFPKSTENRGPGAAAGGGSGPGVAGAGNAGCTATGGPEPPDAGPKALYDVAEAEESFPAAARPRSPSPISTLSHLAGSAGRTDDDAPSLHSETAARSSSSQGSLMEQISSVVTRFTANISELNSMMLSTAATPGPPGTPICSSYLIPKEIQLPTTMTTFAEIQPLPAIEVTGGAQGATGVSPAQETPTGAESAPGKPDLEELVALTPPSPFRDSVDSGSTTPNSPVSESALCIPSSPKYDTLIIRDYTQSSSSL

Plasma [4] = conditions: human, 4 h, 5 µM
Cytochrome P450 3A4 = Cytochrome P450 3A4 (Homo sapiens, UniProt P08684)
Chain of Cytochrome P450 3A4 (P08684 whole entry): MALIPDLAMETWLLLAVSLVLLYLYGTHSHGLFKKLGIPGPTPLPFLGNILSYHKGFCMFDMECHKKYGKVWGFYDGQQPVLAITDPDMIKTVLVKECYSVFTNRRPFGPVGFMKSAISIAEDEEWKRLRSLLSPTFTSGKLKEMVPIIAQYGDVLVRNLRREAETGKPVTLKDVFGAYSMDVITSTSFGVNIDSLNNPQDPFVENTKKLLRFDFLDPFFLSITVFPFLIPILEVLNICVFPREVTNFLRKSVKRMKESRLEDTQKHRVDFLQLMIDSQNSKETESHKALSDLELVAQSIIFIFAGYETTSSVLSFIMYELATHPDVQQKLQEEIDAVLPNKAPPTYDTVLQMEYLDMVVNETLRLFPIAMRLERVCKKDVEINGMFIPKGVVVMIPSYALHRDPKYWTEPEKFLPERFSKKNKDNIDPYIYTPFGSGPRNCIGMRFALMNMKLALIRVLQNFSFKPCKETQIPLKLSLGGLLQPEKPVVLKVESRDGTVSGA

Cytochrome P450 1A2 = target: T1, Cytochrome P450 1A2 (Homo sapiens, UniProt P05177)
T1 sequence (P05177 whole entry): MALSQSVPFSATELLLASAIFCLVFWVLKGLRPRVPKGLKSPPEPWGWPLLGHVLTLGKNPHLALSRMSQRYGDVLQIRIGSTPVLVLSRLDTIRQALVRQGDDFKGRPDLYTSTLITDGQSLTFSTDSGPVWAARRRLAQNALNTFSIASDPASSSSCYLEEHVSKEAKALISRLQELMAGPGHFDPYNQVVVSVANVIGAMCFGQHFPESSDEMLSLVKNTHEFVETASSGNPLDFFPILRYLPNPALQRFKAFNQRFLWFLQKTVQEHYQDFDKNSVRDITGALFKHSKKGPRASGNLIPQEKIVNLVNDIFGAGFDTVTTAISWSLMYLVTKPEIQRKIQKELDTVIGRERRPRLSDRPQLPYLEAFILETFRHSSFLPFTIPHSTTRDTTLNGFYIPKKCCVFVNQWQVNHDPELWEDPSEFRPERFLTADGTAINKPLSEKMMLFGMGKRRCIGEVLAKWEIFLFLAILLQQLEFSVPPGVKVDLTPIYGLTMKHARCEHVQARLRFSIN

Cytochrome P450 2D6 = Cytochrome P450 2D6 (Homo sapiens, UniProt P10635)
Chain of Cytochrome P450 2D6 (P10635 whole entry): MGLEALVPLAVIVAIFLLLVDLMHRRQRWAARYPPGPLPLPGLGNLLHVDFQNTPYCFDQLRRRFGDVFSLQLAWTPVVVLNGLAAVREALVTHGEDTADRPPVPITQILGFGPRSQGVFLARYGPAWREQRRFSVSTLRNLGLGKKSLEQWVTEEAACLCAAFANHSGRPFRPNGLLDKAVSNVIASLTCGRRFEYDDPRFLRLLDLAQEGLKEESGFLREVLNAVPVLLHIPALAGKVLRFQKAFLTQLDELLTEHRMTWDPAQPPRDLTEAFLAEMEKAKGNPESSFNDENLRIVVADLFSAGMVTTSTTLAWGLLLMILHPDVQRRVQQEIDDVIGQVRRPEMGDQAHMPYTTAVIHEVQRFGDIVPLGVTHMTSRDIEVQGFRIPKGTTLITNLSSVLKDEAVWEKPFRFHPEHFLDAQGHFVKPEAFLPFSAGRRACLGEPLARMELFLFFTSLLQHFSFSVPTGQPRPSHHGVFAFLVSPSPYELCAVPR

[5] = target: T2, DAT (sodium-dependent dopamine transporter) (Homo sapiens, UniProt Q01959); assay: Inhibition of full-length recombinant human DAT expressed in CHOK1 cells assessed as reduction in [3H]dopamine uptake at 10 uM pretreated for 20 mins followed by [3H]dopamine addition measured after 10 mins by scintillation counting method relative to control; type: cell-based; conditions: CHO-K1 cells expressing full-length recombinant human DAT, probe [3H]dopamine
T2 sequence (Q01959 whole entry): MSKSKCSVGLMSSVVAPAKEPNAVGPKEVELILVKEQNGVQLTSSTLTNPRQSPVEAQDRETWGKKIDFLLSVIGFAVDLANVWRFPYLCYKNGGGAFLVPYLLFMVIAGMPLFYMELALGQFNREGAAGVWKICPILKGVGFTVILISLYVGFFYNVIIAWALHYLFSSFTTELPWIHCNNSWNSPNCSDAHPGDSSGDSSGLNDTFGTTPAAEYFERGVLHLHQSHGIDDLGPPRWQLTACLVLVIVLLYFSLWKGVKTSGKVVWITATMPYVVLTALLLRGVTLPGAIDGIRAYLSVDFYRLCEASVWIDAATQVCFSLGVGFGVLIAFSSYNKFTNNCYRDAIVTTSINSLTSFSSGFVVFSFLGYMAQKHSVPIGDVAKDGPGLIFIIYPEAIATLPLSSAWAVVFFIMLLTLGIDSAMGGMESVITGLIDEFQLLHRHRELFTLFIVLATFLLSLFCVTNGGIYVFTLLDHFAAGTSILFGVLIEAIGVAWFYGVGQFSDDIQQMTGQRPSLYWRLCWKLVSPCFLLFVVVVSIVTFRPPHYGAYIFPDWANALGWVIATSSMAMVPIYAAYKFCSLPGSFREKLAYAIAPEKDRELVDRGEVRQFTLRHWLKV

[6] = target: T2, DAT (sodium-dependent dopamine transporter); assay: in vitro
[7] = target: Sodium-dependent dopamine transporter (Homo sapiens, UniProt Q01959); type: ADME, cell-based
Chain of Sodium-dependent dopamine transporter (Q01959 whole entry): as above

[8] = Volume of distribution at steady state in rat at 1 mg/kg, iv; type: ADME, organism-based; conditions: in vivo, read-out: Vdss
[9] = target: Platelet-activating factor receptor (Homo sapiens) (UniProt P25105); assay: Displacement of [3H]PAF from human PAF at 10 uM after 3 hrs by scintillation counting method relative to control
Chain of Platelet-activating factor receptor (Homo sapiens) (P25105 whole entry): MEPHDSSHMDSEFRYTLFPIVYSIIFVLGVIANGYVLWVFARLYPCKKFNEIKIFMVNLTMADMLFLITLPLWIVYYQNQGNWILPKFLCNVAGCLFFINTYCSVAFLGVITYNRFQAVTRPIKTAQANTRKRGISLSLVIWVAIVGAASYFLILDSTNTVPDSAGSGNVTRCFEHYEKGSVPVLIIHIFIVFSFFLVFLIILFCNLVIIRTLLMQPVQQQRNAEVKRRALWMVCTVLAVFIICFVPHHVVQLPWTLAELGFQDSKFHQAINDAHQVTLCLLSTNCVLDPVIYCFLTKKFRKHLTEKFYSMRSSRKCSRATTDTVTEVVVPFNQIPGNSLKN

[10] = Brain to plasma partition coefficient, Kp of the compound in rat at 3 mg/kg, po; type: ADME, organism-based
[11] = Cmax in rat at 10 mg/kg, po; type: ADME, organism-based; set-up: dose 10 mg/kg, route oral; conditions: in vivo
[12] = Plasma clearance in rat at 1 mg/kg, iv; type: ADME, organism-based
[13] = Tmax in rat at 10 mg/kg, po; type: ADME, organism-based; conditions: in vivo
Mus musculus [14] = assay: Anxiolytic-like activity in ip dosed Harlan CD-1 mouse marble burying model of OCD assessed as suppression of marble burying activity administered 15 mins prior to test measured over 30 mins; type: functional; conditions: Harlan CD-1, ip, read-out: MED
[15] = Ratio of unbound brain to plasma concentration in rat at 3 mg/kg, po; type: ADME, organism-based
[16] = Apparent permeability of the compound across basolateral side to apical side in MDCK cells expressing MDR1 measured every 30 mins for 2 hrs; type: ADME, cell-based, Canis lupus familiaris; conditions: dog
[17] = Oral bioavailability in rat at 10 mg/kg; type: ADME, organism-based; conditions: in vivo
[18] = AUC in rat at 10 mg/kg, po; type: ADME, organism-based; conditions: in vivo
[19] = Half life in rat at 1 mg/kg, iv; type: ADME, organism-based; conditions: in vivo
[20] = Apparent permeability of the compound across apical side to basolateral side in MDCK cells expressing MDR1 measured every 30 mins for 2 hrs; type: ADME, cell-based, Canis lupus familiaris; conditions: dog
[21] = Mean residence time in rat at 1 mg/kg, iv; type: ADME, organism-based; conditions: in vivo
Brain = assay: Fraction unbound in rat brain homogenates at 5 uM after 6 hrs by equilibrium dialysis method; type: ADME, tissue-based; conditions: brain homogenate
Mus musculus [22] = assay: Anxiolytic-like activity in Harlan CD-1 mouse marble burying model of OCD assessed as suppression of marble burying activity at 10 mg/kg, ip administered 15 mins prior to test measured over 30 mins; type: functional, organism-based
[23] = CHO-K1 cells expressing recombinant human DAT, probe [125I]RTI-55

SMILES | IC50 [1] [µM] | Fu (Plasma [2]) | IC50 (Cytochrome P450 2C9) [µM] | %max [3] [%] | Fu (Plasma [4]) | IC50 (Cytochrome P450 3A4) [µM] | IC50 (Cytochrome P450 1A2) [µM] | IC50 (Cytochrome P450 2D6) [µM] | also measured
COc1ccc(NC(=O)c2cc(Oc3cncc(F)c3)cn3ccnc23)nc1 | 0.055 | 0.014 | 5.7 | 1.6 | 0.028 | 2 | 1.1 | > 30 | 
Cc1ccc(NC(=O)c2cc(Oc3cncc(F)c3)cn3ccnc23)nc1 | 0.074 | 0.005 | 6.9 | 1.4 | 0.016 | 1.9 | 0.8 | > 30 | 
O=C(Nc1ccc(F)cn1)c1cc(Oc2cncnc2)cn2cnnc12 | 0.324 |  |  | 1.6 |  |  |  |  | 
O=C(Nc1ccc(F)cn1)c1cc(Oc2cncc(Cl)c2)cn2ncnc12 | 0.089 |  |  | 1.1 |  |  |  |  | 
O=C(Nc1ccc(F)cn1)c1cc(Oc2cncc(OC(F)F)c2)cn2ncnc12 | 0.129 |  |  | 1.7 |  |  |  |  | 
O=C(Nc1ccc(F)cn1)c1cc(Oc2cnc(F)c(F)c2)cn2ncnc12 | 0.056 | 0.023 | > 30 | 1.6 | 0.031 | 23 | > 30 | > 30 | inhibition at 3 h, 10 µM [6]: 67%; IC50 [7]: 2.87 µM
Cc1nc2c(C(=O)Nc3ccc(F)cn3)cc(Oc3cncc(F)c3)cn2n1 | 1.41 |  |  | 3.3 |  |  |  |  | 
Cc1nnc2c(C(=O)Nc3ccc(F)cn3)cc(Oc3cncc(F)c3)cn12 | 0.372 |  |  | 2.7 |  |  |  |  | 
O=C(Nc1ccc(F)cn1)c1cc(Oc2cc(F)cnc2F)cn2ncnc12 | 0.117 |  |  | 2.2 |  |  |  |  | 
Cc1cc(Oc2cncnc2)cc(C(=O)Nc2ccc(F)cn2)n1 |  |  |  |  |  |  |  |  | Activity (Mus musculus [22]): Active

Now from value to compound, other results behind:

IC50 [1] [µM] | Fu (Plasma [2]) | IC50 (Cytochrome P450 2C9) [µM] | %max [3] [%] | Fu (Plasma [4]) | IC50 (Cytochrome P450 3A4) [µM] | IC50 (Cytochrome P450 1A2) [µM] | IC50 (Cytochrome P450 2D6) [µM] | SMILES | also measured
0.074 | 0.168 | > 30 | 1.5 | 0.313 | > 30 | 9.9 | > 30 | O=C(Nc1ccc(F)cn1)c1cc(Oc2cncnc2)cn2ncnc12 | inhibition at 10 min, 10 µM [5]: 42%; inhibition at 3 h, 10 µM [6, 23]: 60%; IC50 [7]: > 10 µM
0.02 | 0.066 | > 30 | 1.5 | 0.071 | > 30 | 15.1 | > 30 | O=C(Nc1ccc(F)cn1)c1cc(Oc2cncc(F)c2)cn2ncnc12 | Vd [8]: 1.6 L/kg; inhibition [9]: 55%; Kp [10]: 1.4; Cmax [11]: 673 nM; inhibition at 3 h, 10 µM [6, 23]: 89%; clearance [12]: 11 mL/min/kg; Tmax [13]: 3 h; minimal effective dose (Mus musculus [14]): 3 mg/kg; K(p,uu,brain) [15]: 0.6; Papp [16]: 13.1 ×10⁻⁶ cm/s; bioavailability [17]: 20%; AUC [18]: 8.3 µM·h; half-life [19]: 1.35 h; Papp [20]: 10 ×10⁻⁶ cm/s; MRT [21]: 2.38 h; IC50 [7]: 0.73 µM; Fu (Brain): 0.028
0.02 | 0.028 | 5.7 | 1.6 | 0.02 | 3.9 | 0.8 | > 30 | O=C(Nc1ccc(F)cn1)c1cc(Oc2cncc(F)c2)cn2ccnc12 | 
0.041 | 0.066 | > 30 | 2 | 0.067 | > 30 | 4.1 | > 30 | O=C(Nc1ccc(F)cn1)c1cc(Oc2cncc(F)c2F)cn2ncnc12 | inhibition at 3 h, 10 µM [6, 23]: 87%
0.027 | 0.051 | > 30 | 2.3 | 0.1 | 17.8 | 4.3 | > 30 | O=C(Nc1ccc(F)cn1)c1cc(Oc2cncc(F)c2)cn2cnnc12 | Vd [8]: 1.6 L/kg; Kp [10]: 1.7; Cmax [11]: 573 nM; inhibition at 3 h, 10 µM [6, 23]: 91%; clearance [12]: 14 mL/min/kg; Tmax [13]: 3 h; minimal effective dose (Mus musculus [14]): 3 mg/kg; K(p,uu,brain) [15]: 2.1; Papp [16]: 11.1 ×10⁻⁶ cm/s; bioavailability [17]: 17%; AUC [18]: 5.67 µM·h; half-life [19]: 1.32 h; Papp [20]: 4.7 ×10⁻⁶ cm/s; MRT [21]: 1.97 h; Fu (Brain): 0.065
0.038 | 0.023 | 1.6 | 1.5 | 0.026 | 2.3 | 0.6 | 24.8 | O=C(Nc1cccc(F)n1)c1cc(Oc2cncc(F)c2)cn2ccnc12 | 
